Measured values from patent publication US20040044037A1, “Amidino-urea serotonin receptor ligands and compositions, their pharmaceutical uses, and methods for their snythesis” (priority 2003, published 2004).
Where two headings read alike, the source gives them in different places.

Experiments:
human 5-HT1a receptors = molecular target: T1, human 5-HT1a receptors (Homo sapiens, UniProt P08908); assay: Competition radioligand binding, h5-HT1a
T1 construct: expressed in transfected cells; host or cells: CHO K1 cells
T1 sequence (P08908 1-422): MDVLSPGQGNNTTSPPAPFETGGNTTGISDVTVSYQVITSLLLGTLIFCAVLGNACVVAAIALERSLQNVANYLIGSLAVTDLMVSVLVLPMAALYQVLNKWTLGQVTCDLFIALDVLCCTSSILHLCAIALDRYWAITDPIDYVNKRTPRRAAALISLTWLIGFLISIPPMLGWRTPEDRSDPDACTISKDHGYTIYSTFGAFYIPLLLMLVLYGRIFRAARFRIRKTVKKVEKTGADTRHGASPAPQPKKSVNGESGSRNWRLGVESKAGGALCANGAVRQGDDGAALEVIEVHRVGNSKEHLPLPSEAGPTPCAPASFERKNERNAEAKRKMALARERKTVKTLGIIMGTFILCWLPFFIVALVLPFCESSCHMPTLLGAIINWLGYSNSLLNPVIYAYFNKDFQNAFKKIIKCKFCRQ
Description: (§1) Cells and Membrane Preparation: HEK 293 cells stably expressing human 5-HT7B (h5-HT7b) receptors were grown in Dulbecco's Modified Eagle's Medium (DMEM; Gibco) without sodium pyruvate and containing 4.5 g/L glucose, L-glutamine/penicillin-streptomycin (Gemini), 10% fetal bovine serum and 250 mg/l of the antibiotic, G418 (Geneticin) as previously described (Jasper, J. R., Kosaka, A., To, Z. P., Chang, D. J. and Eglen, R. M. (1997) Cloning, expression and pharmacology of a truncated splice variant of the human 5-ht7 receptor (h5-ht7b). Br. J. Pharmacol. 122(1):126-132.). Cell pellets were homogenized in approximately 50 mL of homogenization buffer (buffer A) containing: 50 mM Tris (pH 7.4), 2 mM EGTA, 0.32 M sucrose, 10 μM PMSF, 1 μg/mL leupeptin, 5 μg/mL Pepstatin A, and 5 μg/mL aprotinin using an UltraTurax homogenizer (Tekmar Company, Cincinnati, Ohio) at 80% maximum setting three times for 10 sec. Cell pellets were centrifuged at 4° C. at 1,500×g for 10 min in a Beckman GS-6R centrifuge. Pellets were resuspended in buffer A, homogenized and centrifuged as described above. Pooled supernatants were transferred to centrifuge bottles and centrifuged at 4° C. at 20,000×g for 30 min in a Beckman J2-HS centrifuge. Cell pellets were resuspended in buffer A and were centrifuged at 4° C. at 20,000×g for 30 min. Cell pellets were resuspended in buffer A and stored at −70° C. in aliquots of 2.5 mg/mL total membrane protein. Total membrane protein was assessed utilizing a BCA kit (Pierce; Rockford, Ill.). Membranes containing human 5-HT1a or 5HT2a receptors expressed in CHO K1 cells were prepared as described above.
(§2) Radioligand Binding Assays: For 5-HT7 saturation binding experiments, HEK-293 cell membranes expressing h5-HT7 receptors (5-10 μg membrane protein/well) were incubated in duplicate with [^3H]5-CT (approximately 0.2 nM) in binding assay buffer containing: 50 mM HEPES (pH 7.4), 0.5 mM EDTA, 10 mM MgCl2, 10 μM pargyline to inhibit monoamine oxidase activity, and 0.1% sodium ascorbate, in a final volume of 200 μL in 96-well polypropylene plates for 2 hours at 37° C. Nonspecific binding was determined by incubating membranes with 1 μM 5-HT. All radioligand binding assays were stopped by rapid filtration onto 96-well GF/C filter plates (Packard) soaked in 0.1% polyethylenimine. Filters were washed three times with ice-cold phosphate-buffered saline (PBS) wash buffer containing 50 mM NaPO4 (pH 7.4), 0.9% NaCl, 2 mM MgCl2 and 0.02% NaN3. The filters were then counted using liquid scintillation in a Packard Topcount scintillation counter.
(§3) Data Analysis: Radioligand binding experiments were analyzed with Prism™ (Graphpad, San Diego, Calif.), a computer graphics and statistics program. IC50 values and Hill slopes for compounds were generated by nonlinear regression using Prism™. Values for Ki calculated from IC50 values by the Cheng and Prussoff equation (Cheng, Y. and Prusoff, W. H., (1973), “Relationship between the inhibition constant (Ki) and the concentration of inhibitor which causes 50 per cent inhibition (I50) of an enzymatic reaction.” Biochemical Pharmacol. 22:3099-3108).

human 5HT2a receptors = molecular target: T2, human 5HT2a receptors (Homo sapiens, UniProt P28223); assay: Competition radioligand binding, 5-HT2A
T2 construct: expressed in transfected cells; host or cells: CHO K1 cells
T2 sequence (P28223 whole entry): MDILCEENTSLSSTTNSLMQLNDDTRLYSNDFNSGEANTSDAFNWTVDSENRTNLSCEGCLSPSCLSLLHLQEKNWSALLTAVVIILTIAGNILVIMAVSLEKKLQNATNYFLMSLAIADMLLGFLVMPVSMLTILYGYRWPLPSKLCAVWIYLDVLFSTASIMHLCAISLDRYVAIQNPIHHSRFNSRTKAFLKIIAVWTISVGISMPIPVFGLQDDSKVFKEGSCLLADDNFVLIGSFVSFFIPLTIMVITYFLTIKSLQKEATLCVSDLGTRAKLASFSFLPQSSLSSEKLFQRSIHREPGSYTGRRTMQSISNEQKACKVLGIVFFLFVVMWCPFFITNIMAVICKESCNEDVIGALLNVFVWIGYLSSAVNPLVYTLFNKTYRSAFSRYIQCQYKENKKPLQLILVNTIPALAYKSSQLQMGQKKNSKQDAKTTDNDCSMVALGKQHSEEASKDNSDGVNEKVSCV
Description: as §1, §2, §3

[1] = molecular target: T3, human 5-HT6 (h5-HT6) receptors (Homo sapiens, UniProt P50406); assay: Competition radioligand binding, h5-HT6
T3 construct: purchased Receptor Biology, Inc. (Beltsville, Md.); host or cells: HEK-293 cells
T3 sequence (P50406 whole entry): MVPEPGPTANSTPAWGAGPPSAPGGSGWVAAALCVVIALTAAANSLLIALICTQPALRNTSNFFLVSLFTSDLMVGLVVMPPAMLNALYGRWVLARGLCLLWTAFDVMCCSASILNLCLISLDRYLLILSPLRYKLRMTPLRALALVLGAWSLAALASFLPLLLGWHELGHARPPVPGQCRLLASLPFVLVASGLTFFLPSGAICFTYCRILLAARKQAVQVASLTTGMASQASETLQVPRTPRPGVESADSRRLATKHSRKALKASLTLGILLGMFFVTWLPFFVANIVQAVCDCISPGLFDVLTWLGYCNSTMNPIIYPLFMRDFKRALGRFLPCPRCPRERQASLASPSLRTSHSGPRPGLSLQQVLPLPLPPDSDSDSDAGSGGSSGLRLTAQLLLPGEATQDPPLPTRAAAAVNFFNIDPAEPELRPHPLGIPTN

[2] = molecular target: T4, human 5-HT7B (h5-HT7b) receptors (Homo sapiens, UniProt P34969); assay: Competition radioligand binding, h5-HT7b
T4 construct: expressed in transfected cells
T4 sequence (P34969 1-432 limits assumed): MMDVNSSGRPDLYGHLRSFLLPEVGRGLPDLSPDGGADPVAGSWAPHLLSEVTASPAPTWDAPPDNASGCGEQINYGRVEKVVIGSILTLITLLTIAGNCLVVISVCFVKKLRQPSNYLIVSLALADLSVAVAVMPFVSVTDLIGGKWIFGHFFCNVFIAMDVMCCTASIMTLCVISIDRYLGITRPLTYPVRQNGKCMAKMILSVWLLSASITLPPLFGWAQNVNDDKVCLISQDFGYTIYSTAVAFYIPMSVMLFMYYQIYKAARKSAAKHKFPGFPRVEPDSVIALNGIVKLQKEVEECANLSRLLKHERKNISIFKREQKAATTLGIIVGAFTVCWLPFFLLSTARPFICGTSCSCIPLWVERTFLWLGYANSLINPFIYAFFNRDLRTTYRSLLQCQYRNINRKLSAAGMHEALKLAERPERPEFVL
Description: The compounds of the invention interact with 5-HT receptors and show selectivity for 5-HT receptors. The 5-HT receptor binding properties of the compounds are identified by competitive radioligand binding assays wherein membranes prepared from transfected cells expressing the 5-HT receptor subtype of interest. “Binding constants” refers herein to Ki values measured by inhibition of the binding of radiolabelled ligands that are selective for the 5-HT receptor type being studied. For 5-HT7 receptors, Ki values are determined by measuring the inhibition of 5-carboxamidotryptamine (5-CT) binding, wherein 5-HT7 receptors were incubated with the radiolabelled high affinity ligand, 5-carboxamidotryptamine ([^3H]5-CT), in the presence and absence of the compounds of the invention, at varying concentrations. The compounds of the invention have high binding affinity for serotonin receptors as measured by dissociation constant Ki. […] “Selectivity” for receptor type, in the context of this invention, refers to the ratio of binding constants for the two receptor types being compared. […] The compounds of the present invention preferably show selectivity for 5-HT7 receptors over other serotonin receptor subtypes of greater than about 100. The compounds of the present invention also preferably show selectivity for 5-HT7 receptors over other receptor types, such as dopamine D2, of greater than about 100.
as §1
as §2, with “counter. […]” for “counter.”

[3] = molecular target: T5, human D2S dopamine (hD2S-DA) receptors (Homo sapiens, UniProt P14416); assay: Competition radioligand binding, hD2S dopamine
T5 construct: purchased Receptor Biology, Inc. (Beltsville, Md.); host or cells: A9 L cells
T5 sequence (P14416 1-414 isoform P14416-2): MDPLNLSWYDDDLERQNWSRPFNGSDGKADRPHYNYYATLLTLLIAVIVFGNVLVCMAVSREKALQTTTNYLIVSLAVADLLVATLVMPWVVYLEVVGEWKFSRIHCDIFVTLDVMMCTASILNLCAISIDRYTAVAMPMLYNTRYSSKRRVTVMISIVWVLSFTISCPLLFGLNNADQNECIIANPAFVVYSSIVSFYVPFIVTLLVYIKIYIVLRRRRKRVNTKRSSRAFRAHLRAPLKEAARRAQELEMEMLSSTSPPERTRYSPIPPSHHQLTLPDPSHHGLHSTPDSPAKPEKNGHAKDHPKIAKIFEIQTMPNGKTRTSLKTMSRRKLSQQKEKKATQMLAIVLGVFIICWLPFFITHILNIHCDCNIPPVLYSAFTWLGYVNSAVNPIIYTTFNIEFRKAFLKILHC

[4] = [3H]5-CT, membranes of CHO K1 cells, read-out: Ki 5-HT1A
[5] = [3H]Ketanserin, membranes of CHO K1 cells, read-out: Ki 5-HT2A
[6] = [3H]LSD, membranes of HEK-293 cells, read-out: Ki 5-HT6
[7] = [3H]5-CT, membranes of HEK 293 cells, read-out: Ki 5-HT7
[8] = [3H]Spiperone, membranes of A9 L cells, read-out: Ki D2

COc1cccc(CN2CCC(CNC(=O)NC(=N)NCc3cccc4ccccc34)CC2)c1 [Example 58, 4-({[({Imino[(1-naphthylmethyl)amino]methyl}amino)carbonyl]amino}methyl)-1-(3-methoxybenzyl)piperidine]
Ki (human 5-HT1a receptors; [4]): 420 nM | Ki (human 5HT2a receptors; [5]): 8.1 nM | Ki [1, 6]: 1370 nM | Ki [2, 7]: 23 nM | Ki [3, 8]: 1570 nM

N=C(NCc1cccc2ccccc12)NC(=O)NC[C@@H]1CCCC[C@@H]1O [Example 41, 1-({[([({[(1S,2S)2-Hydroxycyclohexyl]methyl}amino)carbonyl]amino}(imino)methyl]amino}methyl)naphthalene]
Ki (human 5-HT1a receptors; [4]): 54 nM | Ki (human 5HT2a receptors; [5]): 2 nM | Ki [1, 6]: 340 nM | Ki [2, 7]: 8.9 nM | Ki [3, 8]: 1070 nM

N=C(NCc1cccc2ccccc12)NC(=O)N[C@H]1C[C@@H]2CC[C@H]1C2 [Example 23, 1-({[({[(1S,2S,4R)Bicyclo[2.2.1]hept-2-ylamino]carbonyl}amino) (imino)methyl]amino}methyl)naphthalene]
Ki (human 5-HT1a receptors; [4]): 220 nM | Ki (human 5HT2a receptors; [5]): 4 nM | Ki [1, 6]: 1930 nM | Ki [2, 7]: 9.7 nM | Ki [3, 8]: 280 nM

COc1ccc(C(C)=O)cc1CN1CCC(CNC(=O)NC(=N)NCc2cccc3ccccc23)CC1 [Example 63, 1-(5-Acetyl-2-methoxybenzyl)4({[({imino[(1-naphthylmethyl)amino]methyl}amino)carbonyl]amino}methyl)piperidine]
Ki (human 5-HT1a receptors; [4]): 340 nM | Ki (human 5HT2a receptors; [5]): 1.8 nM | Ki [1, 6]: 3030 nM | Ki [2, 7]: 39 nM | Ki [3, 8]: 1780 nM

N=C(NCc1cccc2ccccc12)NC(=O)NCC1CCN(Cc2ccc(F)cc2)CC1 [Example 77, 1-(4-Fluorobenzyl)-4-({[({imino[(1-naphthylmethyl)amino]methyl}amino)carbonyl]amino}methyl)piperidine]
Ki (human 5-HT1a receptors; [4]): 1090 nM | Ki (human 5HT2a receptors; [5]): 9.5 nM | Ki [1, 6]: 3350 nM | Ki [2, 7]: 19 nM | Ki [3, 8]: 1270 nM

N=C(NCc1cccc2ccccc12)NC(=O)N[C@@H](Cc1ccc(O)cc1)C(N)=O [Example 35]
Ki (human 5-HT1a receptors; [4]): > 4000 nM | Ki (human 5HT2a receptors; [5]): 0.92 nM | Ki [1, 6]: 460 nM | Ki [2, 7]: 5.1 nM | Ki [3, 8]: 630 nM

N=C(NCc1cccc2ccccc12)NC(=O)NCC1CCN(Cc2ccccc2)CC1 [Example 75, 1-Benzyl-4-({[({imino[(1-naphthylmethyl)amino]methyl}amino)carbonyl]amino}methyl)piperidine]
Ki (human 5-HT1a receptors; [4]): 340 nM | Ki (human 5HT2a receptors; [5]): 4.9 nM | Ki [1, 6]: 4010 nM | Ki [2, 7]: 29 nM | Ki [3, 8]: 2300 nM

Cc1ccc(CN2CCC(CNC(=O)NC(=N)NCc3cccc4ccccc34)CC2)cc1 [Example 76, 4-({[({Imino[(1-naphthylmethyl)amino]methyl}amino)carbonyl]amino}methyl)-1-(4-methylbenzyl)piperidine]
Ki (human 5-HT1a receptors; [4]): 550 nM | Ki (human 5HT2a receptors; [5]): 6.8 nM | Ki [1, 6]: 3380 nM | Ki [2, 7]: 46 nM | Ki [3, 8]: 1900 nM

Cc1ccccc1CN1CCC(CNC(=O)NC(=N)NCc2cccc3ccccc23)CC1 [Example 65, 4-({[({Imino[(1-naphthylmethyl)amino]methyl}amino)carbonyl]amino}methyl)-1-(2-methylbenzyl)piperidine]
Ki (human 5-HT1a receptors; [4]): 690 nM | Ki (human 5HT2a receptors; [5]): 9.5 nM | Ki [1, 6]: 4180 nM | Ki [2, 7]: 29 nM | Ki [3, 8]: 2490 nM

N=C(NCc1cccc2ccccc12)NC(=O)NCC1CCN(Cc2ccc(F)cc2F)CC1 [Example 67]
Ki (human 5-HT1a receptors; [4]): 500 nM | Ki (human 5HT2a receptors; [5]): 6.4 nM | Ki [1, 6]: 2860 nM | Ki [2, 7]: 32 nM | Ki [3, 8]: > 2500 nM

COc1ccccc1N1CCN(C(=O)NC(=N)NCc2cccc3ccccc23)CC1 [Example 21, N-{[4-(2-Methoxyphenyl)-1-piperazinyl]carbonyl}-N′-(1-naphthylmethyl)guanidine]
Ki (human 5-HT1a receptors; [4]): 520 nM | Ki (human 5HT2a receptors; [5]): 150 nM | Ki [1, 6]: > 10000 nM | Ki [2, 7]: 6 nM | Ki [3, 8]: 900 nM

C[C@@H](O)CNC(=O)NC(=N)NCc1cccc2ccccc12 [Example 55, 1-({[[({[(2R)-2-Hydroxypropyl]amino}carbonyl)amino](imino)methyl]amino}methyl)naphthalene]
Ki (human 5-HT1a receptors; [4]): 1720 nM | Ki (human 5HT2a receptors; [5]): 1.5 nM | Ki [1, 6]: 2320 nM | Ki [2, 7]: 10 nM | Ki [3, 8]: > 2500 nM

N=C(NCc1cccc2ccccc12)NC(=O)NCC1CCN(Cc2cccc(Cl)c2)CC1 [Example 73, 1-(3-Chlorobenzyl)-4-({[({imino[(1-naphthylmethyl)amino]methyl}amino)carbonyl]amino}methyl)piperidine]
Ki (human 5-HT1a receptors; [4]): 390 nM | Ki (human 5HT2a receptors; [5]): 8.7 nM | Ki [1, 6]: 750 nM | Ki [2, 7]: 21 nM | Ki [3, 8]: 830 nM

N=C(NCc1cccc2ccccc12)NC(=O)N1CCC(Cc2ccccc2)CC1 [Example 29, N-[(4-Benzyl-1-piperidinyl)carbonyl]-N′-(1-naphthylmethyl)guanidine]
Ki (human 5-HT1a receptors; [4]): 2690 nM | Ki (human 5HT2a receptors; [5]): 170 nM | Ki [1, 6]: > 10000 nM | Ki [2, 7]: 16 nM | Ki [3, 8]: > 2500 nM

COc1cccc(OC)c1CNC(=N)NC(=O)N1CCC(Nc2ccccc2)CC1 [Example 81, N-[(4-Anilino-1-piperidinyl)carbonyl]-N′-(2,6-dimethoxybenzyl)guanidine]
Ki (human 5-HT1a receptors): 2940 nM | Ki (human 5HT2a receptors): 180 nM | Ki [1]: 4700 nM | Ki [2]: 66 nM | Ki [3]: 1920 nM
